Data reported in patent US20110088107A1, “COMPOSITIONS AND METHODS FOR DERIVING OR CULTURING PLURIPOTENT CELLS” (priority 2009, published 2011).

Assays:
[1] = tested on: NOD blastocysts (ICM explants); experiment: NOD ES cell derivation from blastocysts in the presence of small molecules; format: cell-based, mouse (NOD/LtJ); details: NOD/LtJ blastocysts, mESM with the inhibitors
Source text: NOD/ShiLtJ were obtained from the Jackson laboratory and bred in specific-pathogen-free animal facility. Control MEFs were made from 129SvJae mice. Non-NOD ES lines derived used in this study as controls were derived from matings between 129SvJae or B6D2F1 mice. To derive ES lines, ICM explants were derived from day 3.5 blastocysts following procedures previously described (Markoulaki et al., 2008). Where applicable, ES derivation medium was also supplemented with the indicated compounds (Table S2). Dissociation of the outgrowths by treatment with Trypsin was performed on day 5 after plating and the cells were further cultured in mESC derivation medium until colonies appeared (typically after 5-7 days). From then on, established ES lines were cultured in mESM condition supplemented with the indicated compounds. NOD […] ES lines were derived by similarly plating blastocysts in EpiSC-derivation medium (For 100 ml, we added 15 ml FBS (Hyclone), 5 ml KSR, 5 μl Lif (1×107 U ESGRO/ml; Chemicon), 100 μl Mek1 inhibitor (PD98059; Cell Signaling Technology), hFGF2 ([…]), 1 ml non-essential amino acids, 1 ml glutamine solution, and 1 ml pen/strep solution into DMEM/F12). ICM outgrowths were manually passaged after 5-7 days and were stably maintained in […] conditions. […]

[2] = tested on: 129 EpiSCs; experiment: Conversion of EpiSCs into ICM-like iPS cells; format: cell-based, mouse; details: medium (mESM) supplemented, no transgene
Source text: FIGS. 24(A)-24(B) show small molecule conversion of distinct pluripotent states. ([…] derived from the epiblast of day E5.5 mouse embryos or NOD […] ES cells and were reprogrammed into ICM-like after culture in the mESM+KP/CH. While most colonies differentiated due to withdrawal of bFGF and change of medium (indicated by asterisks), ES-like colonies could be observed after 7-9 days and passaged via trypsinization. Within 2 passages ICM-like ES lines could be stably generated. (B) However, NOD […] which was derived from NOD-ES #43 by withdrawing KP/CH and growing the cells in […] conditions for over 8 passages (FIG. 6F), remained dependent on KP/CH molecules. Factors and growth conditions utilized to facilitate the identity conversion at each step are indicated in parenthesis. The pluripotency state was evaluated and defined based on Oct4 enhancer activity, inhibitor sensitivity (indicated in red or blue accordingly for each line). Identical results were obtained by using PD/CH inhibitor combination or KP alone (data not shown). Work described here further analyzed whether the exogenous stimuli defined in this study could interconvert the two distinct pluripotent states. This work first tested whether infection of previously characterized E5.5 derived 129 […] et al., 2007) with a Klf4 or c-Myc Dox inducible vectors could convert the EpiSCs to an ICM-like pluripotent state. […]

[3] = tested on: secondary transgenic MEF line (OSM); details: Lyssiotis et al., 2009; cited from earlier work

With O=C1Cc2c([nH]c3ccc(Br)cc23)-c2ccccc2N1 [Kenpaullone, 9-bromo-7,12-dihydroindolo[3,2-d][1]benzazepin-6(5H)-one] the “# of ES lines derived” value [1] was 2, the “ES derivation (% efficiency)” value [1] was “(13%)” and the “conversion of EpiSCs into iPS cells (ICM-like pluripotency)” value [2] was “conversion can be accomplished”. For the same compound, the “replacement of Klf4 during iPS reprogramming” value [3] was “replaces Klf4 during iPS reprogramming”.
